{"source": "BindingDB's records for doi:10.1016/j.jmb.2007.01.004", "about": "(Astex Therapeutics, 2007)", "molecular_target": "cAMP-dependent protein kinase catalytic subunit alpha (Bos taurus, UniProt P00517)", "experiment": "PKA In Vitro Enzyme Assay", "details": "pH 7.2; 22 °C", "method": "The recombinant alpha catalytic subunit of bovine PKA was assayed with a peptide substrate and test compound in the presence of 40 uM ATP/ [gamma-33P]ATP in 96-well plates. […] IC50 values were determined from an eight-point concentration range run in duplicate and calculated in GraphPad Prism 4.00.", "data": [{"smiles": "Cc1n[nH]c2ccc(-c3cncc(OC[C@@H](N)Cc4c[nH]c5ccccc45)c3)cc12", "note": "[5-{5-[(2S)-2-amino-3-(1H-indol-3-yl)propoxy]pyridin-3-yl}-3-methyl-1H-indazole]", "values": [{"measurement": "IC50", "value": 27, "unit": "nM"}]}]}
